In PMC4257618, “Structures of Plasmodium vivax serine hydroxymethyltransferase: implications for ligand-binding specificity and functional control” (Acta Crystallographica Section D: Biological Crystallography, 2014):
Blank lines part the entries; values can stand above or below the molecule they belong to.

Tests used:
[1] = molecular target: T1, serine hydroxymethyltransferase (PvSHMT) (Plasmodium vivax, UniProt A5K8L9); experiment: X-ray crystal structure at […] Å; also […] inhibition at […] in SHMT–MTHFD coupled assay; format: binding; settings: read-out: % inhibition at 1.55 mM
T1 construct: gene PVX_100730
T1 sequence (A5K8L9 1-442): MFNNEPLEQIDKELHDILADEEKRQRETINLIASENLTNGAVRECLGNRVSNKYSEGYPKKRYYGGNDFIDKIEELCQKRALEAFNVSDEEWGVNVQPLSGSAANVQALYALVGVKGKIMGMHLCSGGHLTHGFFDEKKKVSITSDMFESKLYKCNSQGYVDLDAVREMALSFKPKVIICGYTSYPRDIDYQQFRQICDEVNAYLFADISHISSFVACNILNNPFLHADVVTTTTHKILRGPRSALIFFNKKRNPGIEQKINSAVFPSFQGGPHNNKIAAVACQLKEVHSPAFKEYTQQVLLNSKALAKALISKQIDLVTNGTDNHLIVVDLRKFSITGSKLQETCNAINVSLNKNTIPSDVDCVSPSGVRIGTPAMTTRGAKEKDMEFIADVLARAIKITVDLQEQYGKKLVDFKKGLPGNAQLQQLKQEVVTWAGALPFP

[2] = molecular target: T1, serine hydroxymethyltransferase (PvSHMT); experiment: SHMT–MTHFD coupled enzyme assay (L-Ser–THF); quinonoid formation with D-Ser by absorbance; format: biochemical
[3] = molecular target: T1, serine hydroxymethyltransferase (PvSHMT); experiment: X-ray crystal structure at […] Å; format: binding
[4] = molecular target: T1, serine hydroxymethyltransferase (PvSHMT); experiment: X-ray crystal structure at […] Å; format: binding; remark: listed apart in the source

inhibition at 1550 µM [1]: 30%
Structure (SMILES): Nc1nc(=O)c2c([nH]1)NC[C@@H](CNc1ccc(C(=O)N[C@@H](CCC(=O)O)C(=O)O)cc1)N2C=O (racemic) [(6R)-5FTHF, (6R)-5-formyltetrahydrofolate]

Ki [2]: 210 µM
Structure (SMILES): Nc1nc(=O)c2c([nH]1)NC[C@H](CNc1ccc(C(=O)N[C@@H](CCC(=O)O)C(=O)O)cc1)N2C=O [(6S)-5FTHF, (6S)-5-formyltetrahydrofolate]

Structure (SMILES): N[C@@H](CO)C(=O)O [L-Ser, L-serine]
X-ray crystal structure at 2.5 Å [3]: 4pfn for the PLP–L-Ser external aldimine

Structure (SMILES): Cc1ncc(COP(=O)(O)O)c(C=O)c1O [PLP, pyridoxal-5′-phosphate]
X-ray crystal structure at 2.3 Å [4]: 4pff for the PLP internal aldimine
